For assay [1], the system named is mitochondria membrane potential in DU145 cells. In words: Mitochondria membrane potential measurement (JC-1). Particulars: 5 μM. Format: cell-based, human. The protocol: Mitochondria membrane potential measurement. Cells were seeded at a density of 7.49×10^5 cells per plate in 60 mm plates overnight. The next day, media was replaced with media containing vehicle control or LCL204 (5 μM). Cells were lifted using Cell Stripper (Mediatech), washed twice in PBS, and resuspended in 3 ml 1×JC-1 reagent solution (dissolved in medium). Samples were incubated at 37° C. for 15 minutes, washed twice with PBS, and resuspended in 0.5 ml growth medium before analysis by flow cytometry using a Beckton-Dickinson FACSCalibur (590 nm/527 nm emission). A minimum of 10,000 events were scored for each sample.

The test system of assay [2] is AC mRNA. The assay can be described thus: Reverse transcriptase PCR of AC mRNA. The format is cell-based, human. To be noted: 10 μM, DU145 cells. How it is done: Reverse Transcriptase PCR. DU145 cells were seeded in 6-well plates as described above. […] Cells were collected at indicated time points and total RNA was extracted using RNAqueous-4PCR kit (Ambion Inc.; Austin, TX), including the DNase I treatment step to remove DNA contamination. The level of transcripts of AC was assayed by two-step RT-PCR protocol (Ambion) and Rig/S15 was used as an internal control. The sequence of the primer for amplification of AC is as followed: [NT] 375 bp. All reactions were performed in a programmable thermal cycler (reverse transcription at 55° C. for 1 hour; PCR at 95° C., 3 minutes; 95° C., 30 second; 52° C., 1 minute and extension at 72° C. for 1 minute; final extension at 72° C., 10 minutes).

Assay [3] addresses T1, acid ceramidase (AC) (Homo sapiens, UniProt Q13510).
T1 construct: endogenous in cells
T1 sequence (Q13510 22-395): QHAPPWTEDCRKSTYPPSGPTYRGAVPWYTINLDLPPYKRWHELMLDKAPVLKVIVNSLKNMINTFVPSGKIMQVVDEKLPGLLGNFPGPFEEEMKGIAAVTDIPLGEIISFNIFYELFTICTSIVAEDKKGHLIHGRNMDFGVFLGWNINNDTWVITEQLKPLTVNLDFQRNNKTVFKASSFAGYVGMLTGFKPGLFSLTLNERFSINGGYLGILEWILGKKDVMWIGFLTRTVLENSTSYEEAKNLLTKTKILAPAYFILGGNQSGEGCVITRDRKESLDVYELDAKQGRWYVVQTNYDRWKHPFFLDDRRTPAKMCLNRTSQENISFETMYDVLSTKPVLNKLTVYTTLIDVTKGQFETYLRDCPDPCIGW
In words: Immunoblot of acid ceramidase protein. The format is cell-based. To be noted: DU145 cells. How it is done:
(§1) Immunoblot analysis. Cells were seeded in 60mm plates as described above and treated accordingly. Cells were lifted by gently scraping the plates, washed once with ice cold PBS and then lysed in lysis buffer (PBS, 1% Triton X-100, 10% glycerol) containing protease inhibitors pepstatin A (0.5 μg/ml), leupeptin (0.5 μg/ml), aprotinin (5 μg/ml), and PMSF (100 μg/ml) for 10 minutes on ice. Insoluble material was removed by centrifugation at 14,000 rpm for 15 minutes at 4° C. The supernatants were then supplemented with SDS at a final concentration of 2% and stored at −80° C. Protein concentrations were determined using the DC Protein Assay (BioRad Laboratories; Hercules, CA, USA) according to the manufacturer's instructions. 50 μg of protein per sample (unless otherwise indicated) were separated on NuPAGE 4-12% Bis-Tris gels (Invitrogen; Carlsbad, CA, USA) and transferred to nitrocellulose membranes (BioRad). Following transfer, membranes were blocked for 1 hour at room temperature in Tris-buffered saline (TBS) containing 0.1% Tween-20 and 5% nonfat dry milk and incubated overnight at 4° C. with primary antibody at a dilution of 1:2,000(actin), 1:1,000(cytochrome c, COX IV, Bax, Bak, p53, p38, P-p38), 1:500(P-JNK, JNK), 1:250 (AC, p73), or 1:400(LAMP-1, cathepsin B). Overnight incubations were performed in 5% milk in TBS-Tween. Following overnight incubation, membranes were washed three times for 10 minutes each in TBS-Tween and incubated for 1 hour at room temperature with secondary antibody in 5% milk TBS-Tween at a dilution 1:5,000 (goat anti-mouse IgG) or 1:50,000 (goat anti-rabbit). Membranes were then washed three times more and incubated for 5 minutes at room temperature with Super Signal HRP substrate (Pierce Biotechnology Inc.; Rockford, IL, USA).
Background: Immunoblotting shows a protein as a band on a membrane.

Assay [4] relates to Bak. In words: Bak protein level and Bak foci (Western blot, confocal microscopy). The format is cell-based, human. The protocol:
as §1
Confocal Microscopy and Immunocytochemistry. DU145 cells were grown in 4.3 cm^2 chamber slides (Nalge Nunc) and transfected with YFPmito alone or with the dominant-negative inhibitor of Drp1(K38A) (64) using FuGENE6 (Roche; Indianapolis, IN) according to the manufacturer's instructions using 1 μg of total DNA per chamber. 24 hr after transfection and 30 min prior to treatment with 15 μM LCL204, cells were exposed to zVAD-fmk (50 μM). The slides were fixed with 4% paraformaldehyde for 20 min then permeabilized with 0.2% Triton X-100 for 15 min, followed by blocking with 4% bovine serum albumin for 45 min at RT. Cells were probed with rabbit polyclonal 2-14 anti-Bak antibody (1:5000; BioChem) for 2 hr then stained with goat anti-rabbit Alexa Fluor 543 antibodies (1:250; Molecular Probes) for 45 min. After washing, cells were imaged using the 63x objective of an LSM 510 Zeiss confocal microscope.

Assay [5] concerns the target T2, ASMase (Homo sapiens, UniProt P17405).
T2 construct: DU145 cells were lysed in 50 mM Tris (pH=7.4) using a probe sonicator; endogenous in cells; host or cells: DU145 (lysate of treated cells)
The assay can be described thus: Acid sphingomyelinase activity assay. Format: cell-based. To be noted: DU145 cells, 10 μM. How it is done:
Acid Sphingomyelinase Activity Assay. DU145 cells were lysed in 50 mM Tris (pH=7.4) using a probe sonicator. Cellular debris was removed after centrifugation at 3000×g for 10 minutes. Proteins (50 μg) were adjusted to a total volume of 100 μl and the reaction was started by adding 100 μl of the reaction mixture containing 1 mM EDTA, 250 mM sodium acetate (pH 5.0), 100 μM [choline-methyl-^14C] sphingomyelin and 0.1% Triton X. After incubation at 37° C. for one hour, the reaction was stopped by adding 1.5 ml of chloroform/methanol (2:1) and then 200 μl of water. Phases were separated by centrifugation at 2000×g for 5 minutes. Quantitation of the amount of released radioactive phosphocholine was determined by subjecting 400 μl of the upper phase to scintillation counting.

Assay [6] relates to cFLIPS, Survivin, cIAP-1, RIP, Caspase 8. The assay can be described thus: Anti-apoptotic proteins and caspase 8 after LCL204. To be noted: DU145 cells.

T2 sequence (P17405 47-631): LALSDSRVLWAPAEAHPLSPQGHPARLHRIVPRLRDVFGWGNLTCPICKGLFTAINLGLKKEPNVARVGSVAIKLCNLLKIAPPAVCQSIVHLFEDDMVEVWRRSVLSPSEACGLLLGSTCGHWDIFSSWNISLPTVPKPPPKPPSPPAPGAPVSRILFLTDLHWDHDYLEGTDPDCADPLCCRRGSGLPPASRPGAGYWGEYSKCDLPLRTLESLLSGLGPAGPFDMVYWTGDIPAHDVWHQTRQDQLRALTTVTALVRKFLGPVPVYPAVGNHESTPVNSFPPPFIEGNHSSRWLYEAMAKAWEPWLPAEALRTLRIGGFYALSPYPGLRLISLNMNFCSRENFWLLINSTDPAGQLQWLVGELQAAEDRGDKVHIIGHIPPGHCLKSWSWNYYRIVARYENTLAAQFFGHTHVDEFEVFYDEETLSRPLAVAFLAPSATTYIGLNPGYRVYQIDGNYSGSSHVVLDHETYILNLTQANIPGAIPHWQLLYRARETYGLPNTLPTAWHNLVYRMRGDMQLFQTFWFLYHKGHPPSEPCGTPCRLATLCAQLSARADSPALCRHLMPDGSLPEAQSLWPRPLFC

Turning to `CCCCCCCCCCCCCCN[C@H](CO)[C@H](O)c1ccc([N+](=O)[O-])cc1.Cl` [LCL204, (1R,2R) D-threo-2-N-Tetradecylamino-1-(4′-nitrophenyl)-1,3-propandiol hydrochloride], in assay [1], the “earliest observed decrease in ΔΨm” value was determined as 2 h. Moreover, the “AC mRNA levels” value in assay [2] is “no decrease in AC mRNA levels”. Besides, the “earliest down-regulation of AC” value in assay [3] (5 μM) came to 2 h. For the same compound, the AC expression levels result in assay [3] is “dose and time-dependent decrease in AC expression levels”. Further, in assay [4] (DU145 and PC-3 cells, 10 μM, 12 hours), the “Bak protein levels over time” value is “accumulated Bak protein”. Moreover, the “Bak protein levels versus concentration” value in assay [4] (DU145 cells, 12-hour treatment) is “concentration-dependent up-regulation”. The “Bak foci on the mitochondria membrane” value in assay [4] (DU145 cells, 20 hours, confocal microscopy) is listed as “formation of Bak foci was detected”. Besides, the “Bak and p73 levels” value in assay [4] (PPC-1/pcDNA3 cells, 7.5 μM, 5 hours) was “up-regulation of both Bak and p73 levels”. The “earliest decrease in ASMase activity” value in assay [5] worked out at 30 min. In assay [6], the “Caspase 8” value was “unaffected”; the anti-apoptotic proteins entry was “down-regulation of anti-apoptotic proteins cFLIPS, Survivin, cIAP-1, and RIP”.
